Results as given in the Kinase Knowledgebase extract (Sharma et al. 2016).

Target: MAPK14 (UniProt Q16539)
Experiment: Inhibition of MAPK14 Kinase Activity

Sequence of MAPK14 (Q16539 whole entry, looked up): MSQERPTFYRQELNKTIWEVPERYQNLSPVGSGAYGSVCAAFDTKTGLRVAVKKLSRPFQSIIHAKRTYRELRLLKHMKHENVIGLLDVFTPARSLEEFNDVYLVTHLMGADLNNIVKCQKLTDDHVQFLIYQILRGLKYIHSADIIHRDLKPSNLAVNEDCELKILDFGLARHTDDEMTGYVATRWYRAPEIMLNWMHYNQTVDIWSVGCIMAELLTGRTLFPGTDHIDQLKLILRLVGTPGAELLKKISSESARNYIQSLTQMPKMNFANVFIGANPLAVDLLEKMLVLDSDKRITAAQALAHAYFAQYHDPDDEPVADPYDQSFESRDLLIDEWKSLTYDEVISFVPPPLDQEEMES

Row | Compound | IC50
1 | Cc1cccc(-c2nn3c(c2-c2ccc(F)cc2)CC[C@@H]3CC#N)n1 | < 20 µM
2 | CN1CCN(CCCOc2ccc3c(-c4c(-c5ccccn5)nn5c4CCC5)ccnc3c2)CC1 | < 20 µM
3 | c1ccc(-c2nn3c(c2-c2ccc4ccccc4c2)CCC3)nc1 | < 20 µM
4 | OCCCSc1ccc2c(-c3c(-c4ccccn4)nn4c3CCC4)ccnc2c1 | < 20 µM
5 | Cc1cccc(-c2nn3c(c2-c2ccc4c(c2)OCO4)CCC3)n1 | < 20 µM
6 | CNC(=O)c1ccc2c(-c3c(-c4ccccn4)nn4c3CCC4)ccnc2c1 | < 20 µM
7 | CN(C)CC(=O)Nc1ccc2c(-c3c(-c4ccccn4)nn4c3CCC4)ccnc2c1 | < 20 µM
8 | O=C(NCCc1c[nH]cn1)c1ccc2c(-c3c(-c4ccccn4)nn4c3CCC4)ccnc2c1 | < 20 µM
9 | COC(=O)c1ccc2c(-c3c(-c4ccccn4)nn4c3CCC4)ccnc2c1 | < 20 µM
10 | c1ccc(-c2nn3c(c2-c2ccnc4cc(OCCCn5ccnc5)ccc24)CCC3)nc1 | < 20 µM

Now from value to compound:

Row | IC50 | Compound
11 | < 20 µM | CSc1ccc2nccc(-c3c(-c4ccccn4)nn4c3CCC4)c2c1
12 | < 20 µM | Cc1cccc(-c2nn3c(c2-c2ccnc4cc(N)ccc24)CCC3)n1
13 | < 20 µM | Fc1ccc(-c2nn3c(c2-c2ccnc4ccccc24)CCC3)cc1
14 | < 20 µM | Cc1cccc(-c2nn3c(c2-c2ccnc4ccc(-c5ccc(F)cc5)cc24)CCC3)n1
15 | < 20 µM | Cc1cccc(-c2nn3c(c2-c2ccnc4ccc(C(=O)O)cc24)CCC3)n1
16 | < 20 µM | COc1ccc2c(-c3c(-c4ccccn4)nn4c3CCC4)ccnc2c1
